Reference: PubChem BioAssay (NCI)
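Results reflect a 48-hour exposure of cells in 96-well plates to compound at five concentrations. At the GI50, growth is halved. Definition used: TGI = concentration required for complete inhibition of growth.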 Where a SMILES comes first, the peptide text is derived from it.

Columns and labels:
Assay in all cases: NCI anticancer screen, dose series, 48 h
T-47D breast = system: T-47D breast
EKVX NSCLC = system: EKVX NSCLC
CAKI-1 renal = system: CAKI-1 renal
HCT-15 colon = system: HCT-15 colon
SK-OV-3 ovarian = system: SK-OV-3 ovarian
MDA-MB-231 breast = system: MDA-MB-231 breast
K-562 leukemia = system: K-562 leukemia
M14 melanoma = system: M14 melanoma
PC-3 prostate = system: PC-3 prostate
SNB-75 CNS = system: SNB-75 CNS

SMILES	TGI (T-47D breast) [µM]	TGI (EKVX NSCLC) [µM]	TGI (CAKI-1 renal) [µM]	TGI (HCT-15 colon) [µM]	TGI (SK-OV-3 ovarian) [µM]	TGI (MDA-MB-231 breast) [µM]	TGI (K-562 leukemia) [µM]	TGI (M14 melanoma) [µM]	TGI (PC-3 prostate) [µM]	TGI (SNB-75 CNS) [µM]	GI50 (T-47D breast) [µM]	GI50 (EKVX NSCLC) [µM]	GI50 (CAKI-1 renal) [µM]	GI50 (HCT-15 colon) [µM]	GI50 (SK-OV-3 ovarian) [µM]	GI50 (MDA-MB-231 breast) [µM]	GI50 (K-562 leukemia) [µM]	GI50 (SNB-75 CNS) [µM]	GI50 (PC-3 prostate) [µM]	GI50 (M14 melanoma) [µM]
COc1cccc(OC/C(N=Cc2ccncc2)=N/NC(=O)c2ccncc2)c1	> 100	> 100	> 100	> 100	> 100	> 100	> 100	> 100	> 100											
CCCCN(CCCC)C1=Nc2ccccc2-n2c(nnc2C(=O)OCC)C1	> 100	> 100	> 100		> 100	> 100	86.9	> 100	51.6	> 100										
COc1c(-c2ccc(F)cc2)oc2cc(O)cc(O)c2c1=O	56.9	45.5	48.5	38	> 100	43.9	> 100	> 100	> 100	64										
COC(=O)c1c(C)cccc1C1CN=NC12Cc1cccc(C)c1C2=O (centres undefined)	> 100	> 100	> 100	> 100			79.5	25.5	71.1	> 100										
COC(C/C=C\C=C\CC/C=C/CC(C)/C=C/C(=C\C(=O)O)CC(=O)O)/C(C)=C\C=C(/C)C(=O)O (centres undefined)		> 100	> 100	> 100	> 100	> 100		> 100	> 100	> 100										
CCC(=O)Nc1ccc(N2C(=O)/C(=C/c3ccc(O)c(OC)c3)N=C2c2ccccc2)cc1	> 100	46.4	> 100	> 100	> 100		> 100	> 100	60.8	> 100										
O=P1(N(CCCl)CCCl)NCCCO1 (centres undefined)	> 250	> 250	> 191	> 250	> 250	> 250	> 230	> 250	> 250	> 250										
O=c1[nH]nc(N/N=C\c2ccc(Cl)cc2)c2ccccc12	69.2	> 100	34	34.9	34.6	43.7	81.1	35.4	40.2	47.6										
C/C(=C\COP(=O)(O)OP(=O)(O)O)CC/C=C(\C)CNc1ccccc1	> 50	> 50	> 50	> 50	> 50	> 50	> 50	> 50	> 50	> 50										
C=C1CN=C(Nc2ccc(F)cc2F)S1	> 100	> 100	> 100	> 100	> 100	> 100	> 100		> 100	> 100										
NNc1nnc(-c2ccccc2)nc1Cc1ccccc1		> 100	> 100	> 100	> 100		> 100	45.5												
COc1ccc(C(=O)/C=C/c2ccc(OCCCOc3ccc(/C=C/C(=O)c4ccc(OC)c(OC)c4)cc3)cc2)cc1OC	> 100	> 100	> 100	> 100	> 100	> 100	> 100	> 100	> 100	> 100										
COc1ccc(C2C3=CONC3CC3CCCCC32)cc1 (centres undefined)	> 100		> 100				> 100	> 100	> 100	> 100										
S=c1oc(CCCCCCCCc2nn(CNc3ccc(Cl)cc3)c(=S)o2)nn1CNc1ccc(Cl)cc1		> 100	> 100	> 100	> 100	> 100	> 100	> 100	> 100	> 100										
CCOC(=O)/C(C1=N[C@H](C(=O)OCC)CS1)=C(\O)c1ccccc1		> 100	> 100	> 100			> 100	> 100		> 100										
COc1ccc(-c2cc(-c3ccc(OC)c(OC)c3)nc(SCCCC(=O)NO)n2)cc1	> 100	> 100	2.37	3.59	4.93	8.78	> 100		> 100	5.6	1.42	1.73	0.431	0.553	1.45	1.94	1.11	1.34	2.07	
CCCOC1OC(CS(=O)(=O)O)C(OC(C)=O)C(OC(C)=O)C1OC(C)=O (centres undefined)	> 100		> 100	> 100	> 100	> 100	> 100	> 100	> 100	> 100										
Nc1cc2ncnc(Nc3cccc(Br)c3)c2cn1	> 100		> 100	> 100	74.4	> 100	> 100	> 100	> 100	> 100										
Cc1c(Cl)c(=O)oc2cc(OCC(O)COC(C)C)ccc12 (centres undefined)	> 100	> 100			> 100		> 100	92.4	> 100											
O=c1oc2ccccc2c(O)c1C(c1ccc(O)cc1)c1c(O)c2ccccc2oc1=O	> 100	> 100	> 100	> 100		77.7			> 100	97.8										
O=[N+]([O-])c1cccc([N+](=O)[O-])c1Cl	14.7	46.4	7.68	31.6		51.7	> 100	> 100	38.7	67.5										
COc1ccc(Nc2nc(NNC(=O)Cc3ccccc3)nc(NNC(=O)c3ccncc3)n2)cc1	> 10	> 10	> 10	> 10	> 10	> 10	> 10	> 10		> 10										
CCOC(=O)NC(OCc1ccccc1)(C(=O)OC)C(F)(F)F (centres undefined)	> 100	> 100	87.1	> 100	> 100	> 100	> 100	> 100	> 100											

SMILES	TGI (T-47D breast) [µM]	TGI (EKVX NSCLC) [µM]	TGI (CAKI-1 renal) [µM]	TGI (HCT-15 colon) [µM]	TGI (SK-OV-3 ovarian) [µM]	TGI (MDA-MB-231 breast) [µM]	TGI (K-562 leukemia) [µM]	TGI (M14 melanoma) [µM]	TGI (PC-3 prostate) [µM]	TGI (SNB-75 CNS) [µM]	GI50 (T-47D breast) [µM]	GI50 (EKVX NSCLC) [µM]	GI50 (CAKI-1 renal) [µM]	GI50 (HCT-15 colon) [µM]	GI50 (SK-OV-3 ovarian) [µM]	GI50 (MDA-MB-231 breast) [µM]	GI50 (K-562 leukemia) [µM]	GI50 (SNB-75 CNS) [µM]	GI50 (PC-3 prostate) [µM]	GI50 (M14 melanoma) [µM]
COc1ccc2c3c([nH]c2c1)-c1nc2ccccc2c(=O)n1CC3	> 25	> 25		> 25	> 25	> 25	> 25	> 25	> 25	> 25										
N#C[C@H]1C(=O)C(c2nc3ccccc3[nH]2)S[C@H]1c1ccccc1 (some centres undefined)		> 100	> 100	> 100	> 100		> 100	> 100												
CC(=O)OCC1(CNc2nc(N)ncc2C#N)CC(CCc2ccccc2)C1 (centres undefined)	> 100	> 100	> 100	> 100		> 100	> 100		> 100	> 100										
Cc1cccc(=O)c([O-])c1.Cc1cccc(=O)c([O-])c1.Cc1cccc(=O)c([O-])c1.Cc1cccc(=O)c([O-])c1.[Th+4]		> 89.1	86.6	> 100	> 100		> 38.6	42.1		> 77.7										
Cc1cn([C@@H]2C[C@](C)(CO)N(C)O2)c(=O)[nH]c1=O		> 100	> 100	> 100	> 100	> 100	> 100	> 100	> 100	> 100										
C=C1C(=O)O[C@H]2[C@H]1CC/C(COC(=O)/C=C/C(=O)OC/C1=C/CC[C@@]3(C)O[C@H]3[C@H]3OC(=O)C(=C)[C@@H]3CC1)=C\CC[C@@]1(C)O[C@@H]21		> 100	3.43		> 100			3.89	> 100	66.9		2.22	1.08		> 100			3.47	3.02	1.26
CCC(C)C(NC(=O)C1CCCN1)C(=O)NC(C(=O)NCC(=O)NC(CC(N)=O)C(=O)NC(CC(C)C)C(=O)NC(CC(C)C)C(=O)NC(CCCCN)C(N)=O)C(C)C (centres undefined) (H-PIVGNLLK-NH2; configuration not given here)	> 75	> 75	> 75	> 75	> 75	> 75	> 75	> 75	> 75											
Oc1ccc(O)c(Sc2nnc(CCCCCCCCc3nnc(Sc4cc(O)ccc4O)o3)o2)c1		> 100	69.7	> 100	> 100	> 100	> 100	> 100	> 100	> 100										
COc1ccc(/C=N/N=C(\N)NO)c(OC)c1OC	90.2	> 100	> 100	> 100	> 100	> 100	> 100	> 100	> 100											
NC(=O)CC[C@H]1C(=O)N=C(N)N1C(=O)OCc1ccccc1		> 100	> 100	> 100		> 100	> 100		> 100	> 100										
Cc1ccc(C(=O)NN=C(/N=N/c2cccc(C)c2)c2ccc(N(C)C)cc2)cc1	> 100	> 100	> 100	> 100	> 100	> 100	> 100	> 100	> 100											
Cc1cc(=O)[nH]c(NN2C(Cl)C(=O)C2c2ccco2)n1 (centres undefined)		> 100		> 100			> 100	> 100		68										
O=C(NCCNCCO)N/N=C/c1ccccc1				> 100	> 100		> 100	> 100		> 100										
COc1ccc(C[C@H]2COC(=O)[C@@H]2Cc2ccccc2)cc1OC	> 100	> 100			> 100	> 100	> 100		> 100											
COc1ccc(OC)c(-c2cn3c(n2)sc2ccccc23)c1	> 100	> 100	> 100	> 100	> 100	> 100	> 100		> 100	> 100										
O=C1/C(=C/c2cccs2)N=C(c2ccccc2)N1c1nc2ccccc2s1	> 100	> 100	> 100	> 100		> 100	> 100	> 100	> 100											
CCCCCCCCCCC[N+]1(Cc2ccccc2)CC2CCN(Cc3ccccc3)CC2C1 (centres undefined)	1.37	1.37	2.74	2.96	3.13		0.827	1.48	1.18	2.45										
CC(=O)c1cc(S(=O)(=O)c2ccc(O)c(C(C)=O)c2)ccc1O	> 100	> 100	> 100	> 100	> 100	> 100	> 100	> 100	> 100											
CCOc1ccccc1N=NC1C(=O)N(C(=O)CC(=O)Nc2ccccc2OC)N=C1C (centres undefined)	> 100	21.8	> 100	79.8	94.3	> 100		> 100	> 100	42.1										
CCCCNC(=S)Nc1nc(C(=O)NNC(=S)NCc2ccccc2)cs1	59.3	> 100	90.1	> 100	> 100	> 100	> 100	> 100	> 100											
CCOC(=O)c1c(SCCN2CCCCC2)n(-c2ccccc2)c(=S)n(-c2ccccc2)c1=O	8.27			9.82	> 100	38.4	11	81.6	27.7	37.1										
O=C1/C(=C/C=C/c2ccccc2)CCC1CNc1ccc(Br)cc1 (centres undefined)	> 100	> 100	> 100	> 100	> 100	> 100	> 100	> 100	> 100											
CC(C)(C)C(=O)O[C@H]1C=C[C@@H](O)[C@@H]2[C@H]1[C@@H]1C=C[C@H]2C1	> 100	> 100	> 100	83.5	> 100	> 100	> 100	> 100		> 100										
